This is an account of results in paper PMC10094171, “Development of Novel Pt(IV)-Carbohydrate Derivatives as Targeted Anticancer Agents against Osteosarcoma” (International Journal of Molecular Sciences, 2023).

One experiment deals with MG63 cells. The experiment can be described thus: 2D MTT cell viability assay, MG63 osteosarcoma cells. It counts as cell-based, Human. The procedure: (§1) The drugs were reconstituted in dimethyl sulfoxide (DMSO) at 1 mg/mL concentration, before being diluted in culture media at the required concentration. A 2D in vitro screening of all the drugs was performed at 72 h in a wide concentration range (0.5; 1.5, 5, 15, 30, 60 and 100 µM) on the three different cell lines in terms of cell viability, and the IC50 was calculated. The cell morphology in the presence of the complexes was evaluated at 15 and 30 µM concentrations, for MG63 and SAOS-2 and hFOBs cells, respectively, according to the IC50 at 72 h. […] For the models, a composite hydroxyapatite-based scaffold (MgHA/Coll), as a bone-like matrix, was used in combination with MG63 cells.
(§2) Cell culture. […] The cell number and viability were determined using the trypan blue dye exclusion test, and all cell handling procedures were performed under a laminar flow hood in sterility conditions.
(§3) MTT cell viability assay. A quantitative analysis of cell viability was carried out by using MTT assay, following the manufacturer’s instructions. […] After 15 min of incubation under slight stirring conditions, the absorbance of formazan was read at 570 nm by using a Multiskan FC Microplate Photometer (Thermo Fisher Scientific, Waltham, MA, USA). The values of absorbance are directly proportional to the number of metabolic active cells in each well. […]
For orientation: Tetrazolium assays rely on reduction of a dye to a coloured formazan, in cell work by metabolically active cells.

For the next experiment, the system named is SAOS-2 cells. Briefly: 2D MTT cell viability assay, SAOS-2 osteosarcoma cells. To be noted: SAOS-2, 2D, 72 h. It counts as cell-based, Human. As for the experimental part: as §1, §2, §3
Another experiment deals with hFOBs cells. The experiment can be described thus: 2D MTT cell viability assay, non-cancerous human foetal osteoblasts. The class given is cell-based. The following applies: hFOBs (healthy cells), 72 h. The procedure: The drugs were reconstituted in dimethyl sulfoxide (DMSO) at 1 mg/mL concentration, before being diluted in culture media at the required concentration. A 2D in vitro screening of all the drugs was performed at 72 h in a wide concentration range (0.5; 1.5, 5, 15, 30, 60 and 100 µM) on the three different cell lines in terms of cell viability, and the IC50 was calculated. […] For the models, a composite hydroxyapatite-based scaffold (MgHA/Coll), as a bone-like matrix, was used in combination with MG63 cells.
as §2, §3
Statistical Analysis. […] The MTT results were further analysed using one-way analysis of variance (one-way ANOVA) and Dunnett’s multiple comparisons test. […]

Experiment [1] deals with MG63 cells on bone-mimetic scaffold. The experiment can be described thus: 3D scaffold-based osteosarcoma model (3D OS model), MTT cell viability. The arrangement: species or system Human. To be noted: 15 µM, MG63 3D OS model. The procedure:
as §1
Synthesis of bone-mimetic scaffolds. The Mg-doped hydroxyapatite collagen composite scaffolds were designed and synthesised at ISSMC of CNR of Italy. In brief, 150 g of collagen gel (1 wt%, Opocrin SpA, MO, Italy) was diluted into a phosphoric acid solution (2.4 g in 500 mL; H3PO4, 85 wt.%, Sigma-Aldrich) at room temperature to obtain an acidic aqueous homogenous suspension. […]
MTT cell viability assay. A quantitative analysis of cell viability was carried out by using MTT assay, following the manufacturer’s instructions. […]

pIC50: −log10 of the molar value.

In general, pIC50 refers to the IC50 on a negative log10 scale, so that one unit is a factor of ten. As to `N.N.[Cl][Pt][Cl]` [Cisplatin, cis-[(NH3)2PtCl2], reference compound], the “effect on viable cells in 2D standard culture” value in the experiment on MG63 cells (15 µM, 2D standard culture, p-value ≤ 0.0001) was “significantly reduced the viable cells”. Besides, the pIC50 in the experiment with MG63 cells (MG63, 2D, MTT, 72 h) was 4.91; in the experiment with SAOS-2 cells, 4.86; with hFOBs cells it was 5.39; with hFOBs cells (listed as cisplatin), 5.39. The “effect on cell viability in 3D OS model” value in experiment [1] is given as “did not compromise the cell viability”.
